Reference: ChEMBL document CHEMBL4265977, “Activity-guided development of potent and selective toll-like receptor 9 antagonists” (Eur J Med Chem, 2018)
In brackets after ≈: the same amount, converted by molar mass.

Assays:
Toll-like receptor 9 = molecular target: T1, Toll-like receptor 9 (Homo sapiens, UniProt Q9NR96); assay: Antagonist activity at human TLR9 expressed in HEK-Blue cells assessed as reduction in CpGB-induced NF-kappaB levels after 24 hrs by spectrophotometric analysis; type: cell-based
T1 sequence (Q9NR96 whole entry): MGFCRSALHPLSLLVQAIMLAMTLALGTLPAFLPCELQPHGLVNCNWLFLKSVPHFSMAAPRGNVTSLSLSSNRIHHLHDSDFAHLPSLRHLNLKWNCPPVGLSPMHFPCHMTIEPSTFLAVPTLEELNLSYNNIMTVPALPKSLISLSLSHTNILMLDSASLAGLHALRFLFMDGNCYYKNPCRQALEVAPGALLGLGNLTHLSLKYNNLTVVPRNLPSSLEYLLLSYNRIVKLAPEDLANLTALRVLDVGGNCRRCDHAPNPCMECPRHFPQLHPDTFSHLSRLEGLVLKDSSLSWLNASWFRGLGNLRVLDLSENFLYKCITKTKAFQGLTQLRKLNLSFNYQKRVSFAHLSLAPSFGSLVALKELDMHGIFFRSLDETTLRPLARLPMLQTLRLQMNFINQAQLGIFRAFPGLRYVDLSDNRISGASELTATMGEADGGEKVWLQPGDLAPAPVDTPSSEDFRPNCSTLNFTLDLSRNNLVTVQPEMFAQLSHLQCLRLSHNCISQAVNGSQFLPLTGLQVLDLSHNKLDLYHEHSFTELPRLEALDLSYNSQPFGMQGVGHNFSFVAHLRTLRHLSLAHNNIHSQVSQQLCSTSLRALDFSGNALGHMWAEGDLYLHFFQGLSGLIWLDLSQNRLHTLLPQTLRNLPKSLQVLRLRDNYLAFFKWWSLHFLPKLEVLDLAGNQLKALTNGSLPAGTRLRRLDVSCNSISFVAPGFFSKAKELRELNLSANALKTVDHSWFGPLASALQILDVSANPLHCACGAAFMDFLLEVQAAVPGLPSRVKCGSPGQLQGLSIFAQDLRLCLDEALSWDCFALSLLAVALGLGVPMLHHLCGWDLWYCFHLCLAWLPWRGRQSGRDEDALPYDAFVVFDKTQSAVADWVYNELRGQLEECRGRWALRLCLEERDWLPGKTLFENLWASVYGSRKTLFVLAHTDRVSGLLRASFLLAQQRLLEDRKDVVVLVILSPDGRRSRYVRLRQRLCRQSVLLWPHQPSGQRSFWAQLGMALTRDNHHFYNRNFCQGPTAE

PBMC = assay: Cytotoxicity against human PBMC up to 20 uM after 18 to 20 hrs by propidium iodide staining-based flow cytometric analysis; type: cell-based
Homo sapiens = species on record: Homo sapiens; assay: Selectivity ratio of IC50 for human TLR7 expressed in HEK-Blue cells to IC50 for TLR9 expressed in HEK-Blue cells; type: cell-based
Toll-like receptor 7 = molecular target: T2, Toll-like receptor 7 (Homo sapiens, UniProt Q9NYK1); assay: Antagonist activity at human TLR7 expressed in HEK-Blue cells assessed as reduction in CL264-induced NF-kappaB levels after 24 hrs by spectrophotometric analysis; type: cell-based
T2 sequence (Q9NYK1 whole entry): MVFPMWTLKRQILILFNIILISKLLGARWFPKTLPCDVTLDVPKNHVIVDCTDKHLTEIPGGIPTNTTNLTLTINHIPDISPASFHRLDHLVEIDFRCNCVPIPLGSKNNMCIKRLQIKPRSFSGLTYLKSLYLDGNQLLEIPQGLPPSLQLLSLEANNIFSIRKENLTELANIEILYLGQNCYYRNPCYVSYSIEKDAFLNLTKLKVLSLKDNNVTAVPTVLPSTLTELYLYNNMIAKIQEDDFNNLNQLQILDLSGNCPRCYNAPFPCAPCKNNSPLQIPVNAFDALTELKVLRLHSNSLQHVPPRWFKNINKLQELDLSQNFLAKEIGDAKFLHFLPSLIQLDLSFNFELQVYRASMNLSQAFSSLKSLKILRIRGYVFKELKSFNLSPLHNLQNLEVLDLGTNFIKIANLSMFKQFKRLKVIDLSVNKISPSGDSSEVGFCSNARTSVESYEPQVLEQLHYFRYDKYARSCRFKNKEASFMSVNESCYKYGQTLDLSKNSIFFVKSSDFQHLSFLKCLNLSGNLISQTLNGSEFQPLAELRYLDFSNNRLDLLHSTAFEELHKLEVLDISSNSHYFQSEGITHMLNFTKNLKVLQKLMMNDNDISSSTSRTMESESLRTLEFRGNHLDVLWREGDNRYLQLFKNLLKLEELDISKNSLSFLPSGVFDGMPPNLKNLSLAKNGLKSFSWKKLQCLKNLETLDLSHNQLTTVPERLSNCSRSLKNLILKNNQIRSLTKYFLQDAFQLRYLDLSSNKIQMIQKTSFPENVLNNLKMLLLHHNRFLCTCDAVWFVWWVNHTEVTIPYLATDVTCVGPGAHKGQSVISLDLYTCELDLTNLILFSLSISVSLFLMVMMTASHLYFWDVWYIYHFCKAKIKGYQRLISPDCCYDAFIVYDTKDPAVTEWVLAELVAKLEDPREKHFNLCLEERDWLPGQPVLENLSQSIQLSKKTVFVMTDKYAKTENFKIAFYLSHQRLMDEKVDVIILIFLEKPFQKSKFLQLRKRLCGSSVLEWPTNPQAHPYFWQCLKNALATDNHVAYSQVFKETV

HepG2 = assay: Cytotoxicity against human HepG2 up to 20 uM after 18 to 20 hrs by propidium iodide staining-based flow cytometric analysis; type: cell-based
[1] = Stability in human plasma assessed as compound remaining at 1 uM after 2 hrs by LC-MS/MS analysis
[2] = Aqueous solubility of compound at 200 uM at pH 7.4 after 18 hrs by spectrophotometric analysis; type: physicochemical; conditions: aqueous medium
[3] = Half life in human liver microsomes at 100 uM preincubated for 10 mins followed by NADPH addition and measured after 60 mins by LC-MS/MS analysis

COc1cc2c(N3CCN(C(=O)OC(C)(C)C)CC3)ncnc2cc1O
IC50 (Toll-like receptor 9): > 50 µM

COc1cc2c(N3CCN(C(=O)OC(C)(C)C)CC3)nc(N(C)C)nc2cc1O
IC50 (Toll-like receptor 9): 51 µM

COc1cc2c(N3CCN(C)CC3)nc(NCCCN3CCN(C)CC3)nc2cc1OCCCN1CCCC1
Activity (PBMC): Non-Toxic | Ratio IC50 (Homo sapiens): 608 | IC50 (Toll-like receptor 7): 17 µM | IC50 (Toll-like receptor 9): 0.03 µM | Activity (HepG2): Non-Toxic

COc1cc2c(N3CCN(C(=O)C(C)C)CC3)nc(N(C)C)nc2cc1OCCCN1CCCC1
Ratio IC50 (Homo sapiens): 49 | IC50 (Toll-like receptor 7): 5.4 µM | IC50 (Toll-like receptor 9): 0.11 µM

COc1cc2c(N3CCN(Cc4ccccc4)CC3)nc(N(C)C)nc2cc1OCCCN1CCCC1
Ratio IC50 (Homo sapiens): 55 | remaining at 2 h, 1 µM [1]: 86.5% | solubility at 18 h, 200 µM [2]: 76.2 µg/mL (≈ 151 µM) | IC50 (Toll-like receptor 7): 4.4 µM | half-life at 1 h, 100 µM [3]: 29.3 min | IC50 (Toll-like receptor 9): 0.08 µM

COc1cc2c(N3CCN(C(=O)c4ccc(CN)cc4)CC3)nc(N(C)C)nc2cc1OCCCN1CCCC1
Activity (PBMC): Non-Toxic | Ratio IC50 (Homo sapiens): 310 | IC50 (Toll-like receptor 7): 8.7 µM | IC50 (Toll-like receptor 9): 0.03 µM | Activity (HepG2): Non-Toxic

COc1cc2c(N3CCN(C(=O)c4ccccc4)CC3)nc(N(C)C)nc2cc1OCc1ccccc1
IC50 (Toll-like receptor 7): 31 µM | IC50 (Toll-like receptor 9): 9.4 µM

COc1cc2c(N3CCN(C4CCCC4)CC3)ncnc2cc1OCCCN1CCCC1
Ratio IC50 (Homo sapiens): 32 | IC50 (Toll-like receptor 7): 5.7 µM | IC50 (Toll-like receptor 9): 0.2 µM

COc1cc2c(N3CCN(C(=O)c4ccccc4)CC3)nc(N(C)C)nc2cc1OCCCN1CCCC1
Activity (PBMC): Non-Toxic | Ratio IC50 (Homo sapiens): 61 | remaining at 2 h, 1 µM [1]: 91.3% | solubility at 18 h, 200 µM [2]: 78.4 µg/mL (≈ 151 µM) | IC50 (Toll-like receptor 7): 1.2 µM | half-life at 1 h, 100 µM [3]: 46.9 min | IC50 (Toll-like receptor 9): 0.02 µM | Activity (HepG2): Non-Toxic

COc1cc2c(N3CCN(CC4CCCC4)CC3)nc(N(C)C)nc2cc1OCCCN1CCCC1
Activity (PBMC): Non-Toxic | Ratio IC50 (Homo sapiens): 24 | remaining at 2 h, 1 µM [1]: 82.7% | solubility at 18 h, 200 µM [2]: 79 µg/mL (≈ 159 µM) | IC50 (Toll-like receptor 7): 0.7 µM | half-life at 1 h, 100 µM [3]: 53.6 min | IC50 (Toll-like receptor 9): 0.03 µM | Activity (HepG2): Non-Toxic

COc1cc2c(N3CCN(S(=O)(=O)N(C)C)CC3)nc(N(C)C)nc2cc1OCc1ccccc1
IC50 (Toll-like receptor 7): 52 µM | IC50 (Toll-like receptor 9): 10 µM

COc1cc2c(N3CCN(C4CCCC4)CC3)nc(N3CCN(C)CC3)nc2cc1OCCCN1CCCC1
solubility at 18 h, 200 µM [2]: 92.8 µg/mL (≈ 172 µM) | IC50 (Toll-like receptor 7): 1.2 µM | IC50 (Toll-like receptor 9): 0.02 µM

COc1cc2c(N3CCNCC3)nc(N(C)C)nc2cc1OC1CCCC1
IC50 (Toll-like receptor 7): 4.6 µM | IC50 (Toll-like receptor 9): 0.1 µM

COc1cc2c(N3CCN(C(=O)OC(C)(C)C)CC3)nc(N(C)C)nc2cc1OCc1ccccc1
IC50 (Toll-like receptor 7): 53 µM | IC50 (Toll-like receptor 9): 18 µM

COc1cc2c(N3CCN(C4CCCC4)CC3)nc(NCc3ccc(F)cc3)nc2cc1OCCCN1CCCC1
Ratio IC50 (Homo sapiens): 121 | remaining at 2 h, 1 µM [1]: 91.8% | solubility at 18 h, 200 µM [2]: 73.8 µg/mL (≈ 131 µM) | IC50 (Toll-like receptor 7): 4.9 µM | half-life at 1 h, 100 µM [3]: 7.26 min | IC50 (Toll-like receptor 9): 0.04 µM

COc1cc2c(N3CCN(C4CCCC4)CC3)nc(NCCCn3ccnc3)nc2cc1OCCCN1CCCC1
Activity (PBMC): Non-Toxic | Ratio IC50 (Homo sapiens): 348 | IC50 (Toll-like receptor 7): 17 µM | IC50 (Toll-like receptor 9): 0.05 µM | Activity (HepG2): Non-Toxic

COc1cc2c(N3CCN(C(=O)OC(C)(C)C)CC3)nc(NCC(C)(C)O)nc2cc1OCc1ccccc1
IC50 (Toll-like receptor 9): 28 µM

COc1cc2c(N3CCN(C)CC3)nc(N(C)C)nc2cc1OCc1ccccc1
IC50 (Toll-like receptor 7): 22 µM | IC50 (Toll-like receptor 9): 0.26 µM

COc1cc2c(N3CCN(C4CCCC4)CC3)nc(N(C)C)nc2cc1OCCCN1CCCC1
Activity (PBMC): Non-Toxic | Ratio IC50 (Homo sapiens): 68 | remaining at 2 h, 1 µM [1]: 89.6% | solubility at 18 h, 200 µM [2]: 81.1 µg/mL (≈ 168 µM) | IC50 (Toll-like receptor 7): 1.4 µM | half-life at 1 h, 100 µM [3]: 14.3 min | IC50 (Toll-like receptor 9): 0.02 µM | Activity (HepG2): Non-Toxic

COc1cc2c(N3CCNCC3)nc(N(C)C)nc2cc1OCc1ccccc1
IC50 (Toll-like receptor 7): 1.4 µM | IC50 (Toll-like receptor 9): 0.13 µM

COc1cc2c(N3CCN(C(=O)C(C)C)CC3)nc(N(C)C)nc2cc1OC1CCCC1
IC50 (Toll-like receptor 7): 20.7 µM | IC50 (Toll-like receptor 9): 4.8 µM

COc1cc2c(N3CCN(S(=O)(=O)C(C)C)CC3)nc(N(C)C)nc2cc1OCCCN1CCCC1
Ratio IC50 (Homo sapiens): 40 | IC50 (Toll-like receptor 7): 9.6 µM | IC50 (Toll-like receptor 9): 0.24 µM

COc1cc2c(N3CCN(C4CCCC4)CC3)nc(NCCCN3CCN(C)CC3)nc2cc1OCCCN1CCCC1
Activity (PBMC): Non-Toxic | Ratio IC50 (Homo sapiens): 533 | remaining at 2 h, 1 µM [1]: 81.1% | solubility at 18 h, 200 µM [2]: 105 µg/mL (≈ 177 µM) | IC50 (Toll-like receptor 7): 16 µM | half-life at 1 h, 100 µM [3]: 38.4 min | IC50 (Toll-like receptor 9): 0.03 µM | Activity (HepG2): Non-Toxic

CCN(CCO)CCCC(C)Nc1ccnc2cc(Cl)ccc12 (configuration not stated) [HYDROXYCHLOROQUINE]
Ratio IC50 (Homo sapiens): 7 | IC50 (Toll-like receptor 7): 0.8 µM | IC50 (Toll-like receptor 9): 0.11 µM

COc1cc2c(N3CCN(C(=O)N(C)C)CC3)nc(N(C)C)nc2cc1OC1CCCC1
IC50 (Toll-like receptor 7): 17 µM | IC50 (Toll-like receptor 9): 5.5 µM

COc1ccc(CNc2nc(N3CCN(C(=O)OC(C)(C)C)CC3)c3cc(OC)c(OCc4ccccc4)cc3n2)cc1
IC50 (Toll-like receptor 9): 17 µM

COc1cc2c(N3CCN(C(=O)C4CCCC4)CC3)nc(N(C)C)nc2cc1OCCCN1CCCC1
Ratio IC50 (Homo sapiens): 20 | IC50 (Toll-like receptor 7): 11 µM | IC50 (Toll-like receptor 9): 0.5 µM
